Data from paper PMC7873226, “Molecular mechanism and structural basis of small-molecule modulation of the gating of acid-sensing ion channel 1” (Communications Biology, 2021).

Experiments:
rat ASIC1a [1] = biological target: T1, rat ASIC1a (Rattus norvegicus, UniProt P55926); experiment: Whole-cell patch clamp: inhibition of acid-induced current in CHO cells stably expressing rat ASIC1a; format: cell-based; conditions: 30 µM
T1 construct: expressed in transfected cells
T1 sequence (P55926 1-526): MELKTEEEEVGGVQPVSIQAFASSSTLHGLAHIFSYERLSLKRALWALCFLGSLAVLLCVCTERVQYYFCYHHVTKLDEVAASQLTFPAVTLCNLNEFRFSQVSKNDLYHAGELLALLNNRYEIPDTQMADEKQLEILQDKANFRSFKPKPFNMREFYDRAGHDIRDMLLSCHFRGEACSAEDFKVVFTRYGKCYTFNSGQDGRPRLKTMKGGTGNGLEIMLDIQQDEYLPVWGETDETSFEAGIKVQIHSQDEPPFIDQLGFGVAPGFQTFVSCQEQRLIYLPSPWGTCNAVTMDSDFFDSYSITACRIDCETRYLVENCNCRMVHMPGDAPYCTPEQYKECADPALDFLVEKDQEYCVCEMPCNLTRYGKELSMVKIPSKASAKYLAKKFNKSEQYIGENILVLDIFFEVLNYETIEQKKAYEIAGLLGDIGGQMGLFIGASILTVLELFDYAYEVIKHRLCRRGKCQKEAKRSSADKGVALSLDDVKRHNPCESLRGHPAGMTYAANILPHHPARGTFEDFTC
Experimental: (§1) Chinese Hamster Ovary (CHO) cells stably expressing rat ASIC1a were cultured in Ham’s F12, supplemented with 10% FBS, 1% penicillin–streptomycin and 500 µg/mL G418 and incubated at 37 °C with 5% CO2. Transient transfections of rASIC1a and cASIC1 wild-type or mutant channels in CHO cells were performed with Lipofectamine 3000 (Thermo Fisher Scientific) according to the manufacturer’s recommendations. The green fluorescent protein (GFP) cDNA (at 1/10 the amount of channel cDNA) was co-transfected with channel cDNA to aid the identification of transfected cells under the microscope in patch clamp experiments. All cDNAs were sequence verified.
(§2) Cells were freshly dissociated with CellStripper (Corning) and dispersed in a chamber on the stage of an inverted microscope. Upon formation of the whole-cell conformation, the cell was lifted from the bottom of the chamber and placed at the tip of a tubing perfusing an extracellular solution containing (in mM): 149 NaCl, 2 CaCl2, 4 KCl, 1 MgCl2, 5 glucose, 10 HEPES, pH 7.4, 310 mOsm/L. Extracellular solutions at more basic or acidic pHs were made by titrating the above pH 7.4 solution with NaOH or HCl (5 mM MES was added to solutions at pH 6.0 and lower). Pipette electrodes were filled with an intracellular solution containing (in mM): 135 KCl, 4 MgATP, 0.3 Na2GTP, 10 EGTA, and 20 HEPES, pH 7.2, 290 mOsm/L.
(§3) All recordings were performed at room temperature using an Axopatch 200B amplifier and pClamp 11 software (Molecular Devices). Currents were measured by whole-cell patch clamp, digitized at 10 kHz and lowpass filtered at 2 kHz. Series resistance was 75% compensated. Responses were elicited by rapid perfusion of acidic solutions using the SF-77B Fast-Step Perfusion device (Warner Instruments) for 40 ms once every 30 s (unless indicated otherwise) and recorded till steady state was reached. The holding potential was 0 mV unless indicated otherwise.
(§4) Baseline values (i.e., current amplitudes at the conditioning pH) were subtracted to obtain responses evoked by the test pH. Responses were normalized for each cell before averaging (see figure legends for more detail on normalization for each type of experiment). Concentration–response data were fitted to a logistic function of the form: R = (A1–A2)/(1 + (C/C0)^h)+A2, where R is the normalized response, C is either pH or compound concentration, C0 is the pH/concentration at which half-maximal response occurs (pH50 or IC50), h is the Hill coefficient, and A1 and A2 are constants. Kinetic parameters were obtained by fitting the data with either a single or double exponential function. Fitted data are shown as solid, dashed, or dotted curves.

rat ASIC1a [2] = biological target: T1, rat ASIC1a; experiment: pH dependence of steady-state desensitization (whole-cell patch clamp); format: cell-based; conditions: 10 nM PcTx1
Experimental: as §1, §2, §3, §4

block of pH 6.0-induced current (rat ASIC1a [1]; 0 mV) [%]	block of pH 6.0-induced current (rat ASIC1a [1]; −80 mV) [%]	Compound	pH50 of steady-state desensitization (rat ASIC1a [2])
62.3 ± 0.7	86.8 ± 1.2	N=C(N)NC(=O)c1nc(Cl)c(N)nc1N [amiloride, reference compound]	
		PcTx1 [reference compound]	7.81 ± 0.02
